In experiment [1] the target is T1, rat M1 wild-type receptor (RM1) (Rattus norvegicus, UniProt P08482).
T1 construct: expressed in transfected cells
T1 sequence (P08482 1-460): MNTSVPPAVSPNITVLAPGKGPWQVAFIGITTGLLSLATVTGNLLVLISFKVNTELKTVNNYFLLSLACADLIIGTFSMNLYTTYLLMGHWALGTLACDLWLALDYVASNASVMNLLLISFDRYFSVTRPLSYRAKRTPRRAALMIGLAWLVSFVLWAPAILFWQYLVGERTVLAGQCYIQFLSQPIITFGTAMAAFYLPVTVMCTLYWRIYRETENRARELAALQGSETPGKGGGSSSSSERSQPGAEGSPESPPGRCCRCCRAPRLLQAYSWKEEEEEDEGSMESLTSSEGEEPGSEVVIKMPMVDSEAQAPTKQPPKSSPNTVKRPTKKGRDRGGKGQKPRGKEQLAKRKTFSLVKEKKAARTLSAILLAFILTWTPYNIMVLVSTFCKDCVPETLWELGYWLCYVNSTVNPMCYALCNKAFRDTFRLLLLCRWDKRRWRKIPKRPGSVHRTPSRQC
Description: ^3H-NMS radioligand binding, wild-type. The conditions noted are these: for Shift: Ki divided by Ki for wild-type (reference). The method, then:
Briefly, cell homogenates are prepared from cells transiently or stably expressing wild type or mutant receptors. For transiently transfected cells, HEK cells are transfected with receptor of interest and cells harvested 48 hours post transfection. Cells expressing the receptor, stably or transiently, are harvested using phosphate buffered saline containing 5 mM EDTA, cells centrifuged at low speed and pellet re-suspended in binding buffer. Cell suspension is polytroned and centrifuged at 15,000×g. The pellet is resuspended in binding buffer and centrifugation repeated two more times. The washed cell homogenates are used for the competition binding assays. Competition binding assays are carried out in the presence of fixed amount of cell homogenate, fixed concentration of radioactively labeled orthosteric or allosteric ligand and varying concentrations of the cal under study using appropriate buffer. Incubations are carried out at room temperature for 2 hours. Incubations are terminated by filtration onto GF/B filters using Packard cell harvester followed by 3 washes with ice-cold buffer. Radioactivity retained on the filters is quantitated using Packard Top Count using Microscint 20 scintillation fluid. […] The membranes prepared above are incubated with a labeled ligand in 25 mM sodium phosphate, 5 mM magnesium chloride, 0.01% BSA two hours at room temperature. The binding reaction is stopped by rapid filtration onto GF/B filters. […] The pKd values (pKd=−log Kd) of the labeled ligand are calculated.
Radioligand binding assays were carried out in 25 mM sodium phosphate, 5 mM magnesium chloride, 0.01% BSA. Incubations were for two hours at room temperature, and reactions were stopped by rapid filtration onto GF/B filters.

The target of the next experiment is T2, rat M1 Y106A receptor (Rattus norvegicus, UniProt P08482, Y106A).
T2 construct: expressed in transfected cells
T2 sequence (P08482 1-460 Y106A): T1 sequence (P08482 1-460) with Y106A
Description: R-SAT functional assay, Y106A mutant. The format is cell-based. The following applies: for Shift / EC50 / Eff (%): Table 3; for Shift: EC50 Y106A divided by EC50 wild-type; for Eff (%): maximum response, normalized. The procedure: (§1) Cells are co-transfected for 18 h with DMEM containing 0.08 micrograms/ml of an expression vector for the expression of the mutant receptor and 0.3 micrograms/ml pSI-Bgal (Promega, Madison Wis.), and 0.5% v/v Polyfect (Qiagen, Valencia Calif.), as recommended by the manufacturer. On day three, the medium is replaced with DMEM containing 1% PSG, 0.5% calf serum, 2% cyto-sf3 (Kemp Biotechnologies, Frederick, Md.), and varying concentrations of the compounds to be tested. Cells are grown in a humidified atmosphere with 5% ambient CO2 for 5 days. The media is removed from the plates, and beta-galactosidase activity is measured by the addition of o-nitrophenyl -d-galactopyranoside in phosphate-buffered saline with 5% Nonidet P-40. […] The following equation is fitted to the data using GraphPad Prism software (San Diego, Calif.):
(§2) NIH-3T3 cells were grown in 96-well tissue culture plates to 70 to 80% confluence in Dulbecco's modified essential media (DMEM) supplemented with 100 units/ml penicillin, 100 micrograms/ml streptomycin, 0.3 mg/ml L-glutamine (1% PSG, GIBCO) and 10% calf serum (Sigma-Aldrich). Cells were transfected for 18 h with DMEM containing 0.08 micrograms/ml receptor DNA and 0.3 micrograms/ml pSI-Bgal (Promega, Madison Wis.), 0.5% v/v Polyfect (Qiagen, Valencia Calif.). Medium was replaced with DMEM containing 1% PSG, 0.5% calf serum, 2% cyto-sf3 (Kemp Biotechnologies, Frederick, Md.), and varying concentrations of ligand. […] Cells were grown in a humidified atmosphere with 5% ambient CO2 for 5 days. Medium was removed from the plates, and beta-galactosidase activity was measured by the addition of o-nitrophenyl -d-galactopyranoside in phosphate-buffered saline with 5% Nonidet P-40.

The target of experiment [2] is T3, rat M1 wild-type receptors (Rattus norvegicus, UniProt P08482).
T3 construct: expressed in transfected cells
T3 sequence (P08482 1-460): T1 sequence (P08482 1-460)
Description: R-SAT functional assay, wild-type receptor. The format is cell-based. The following applies: for EC50: read-out: pEC50 (converted); for Shift: EC50 divided by EC50 for wild-type (reference). The method, then:
as §1, §2
Receptor Selection and Amplification (R-SAT™) Assays: R-SAT™ functional assays were carried out as follows. NIH-3T3 cells were grown in 96-well tissue culture plates to 70 to 80% confluence in Dulbecco's modified essential media (DMEM) supplemented with 100 units/ml penicillin, 100 micrograms/ml streptomycin, 0.3 mg/ml L-glutamine (1% PSG, GIBCO) and 10% calf serum (Sigma-Aldrich). Cells were transfected for 18 h with DMEM containing 0.08 micrograms/ml receptor DNA and 0.3 micrograms/ml pSI-Bgal (Promega, Madison Wis.), 0.5% v/v Polyfect (Qiagen, Valencia Calif.). The transfected cells were frozen away. Cells were thawed and added to 96 well plates with DMEM containing 1% PSG, 0.5% calf serum, 2% cyto-sf3 (Kemp Biotechnologies, Frederick, Md.), and varying concentrations of ligand.
In an effort to further characterize monoamine modulators, we used a panel of mutant muscarininc M1 receptors to analyze the activity and potency of orthosteric modulators and various allosteric modulators at those receptors.

The mark [3] stands for this setting: Table 2, maximum response relative to maximum response of carbachol.
Setting [4] is: Table 3, M1 WT, maximum response, normalized.
The mark [5] stands for this setting: Table 4, M1 wild type, maximum response relative to xanomeline.
Setting [6] is: Table 10, M1 Wild-Type, NA = non-active.
[7] abbreviates: Table 10, M1 Wild-Type, maximum response relative to carbachol.

Substitutions are numbered along the chain they refer to. Like-named read-outs stand apart in the source and are kept apart here.

Usually IC50 stands for the concentration that gives 50% inhibition. As to `CCCCC1CCN(CCCC(=O)c2ccccc2C)CC1` [AC-42, 4-n-butyl-1-[4-(2-methylphenyl)-4-oxo-1-butyl] piperidine hydrogen chloride], the half-maximal inhibitory concentration (IC50) in experiment [1] was 5010 nM. The results for the Shift (in experiment [1]; on rat M1 Y106A receptor; in experiment [2] (Table 3)) were 1, over 8 and 1, respectively. For the same compound, the EC50 is over 1000 nM at rat M1 Y106A receptor (Y106A); 158 nM in experiment [2] (Table 2, mean +/- S.E.M., n=5); 158 nM in experiment [2] (Table 3, M1 WT); 200 nM in experiment [2] (setting [6]). Moreover, the “Eff (%)” value at rat M1 Y106A receptor (Y106A) is on record as >30 ± — %; in experiment [2] (setting [3]) it was 48 ± 11%; in experiment [2] (setting [4]) it was 47 ± 5%. For the same compound, the “% Eff” value worked out at 24% in experiment [2] (setting [5]) and 56% in experiment [2] (setting [7]).

For the compound `CCCCC1CCN(CCCN2C(=O)COc3cc(F)ccc32)CC1` [AC-260584, 4-[3-(4-Butyl-piperidin-1-yl)-propyl]-7-fluoro-4H-benzo [1,4]oxazin-3-one], the concentration for half-maximal inhibition (IC50) in experiment [1] is 1260 nM. The Shift in experiment [1] was 1; on rat M1 Y106A receptor it was 6; in experiment [2] (Table 3) it was 1. The EC50 on rat M1 Y106A receptor (Y106A) was 79.4 nM; in experiment [2] (Table 2, mean +/- S.E.M., n=5), 15.8 nM; in experiment [2] (Table 3, M1 WT), 15.8 nM; in experiment [2] (Table 4, M1 wild type), 25.1 nM; in experiment [2] (setting [6]), 25.1 nM. The “Eff (%)” value amounted to 69 ± 3% on rat M1 Y106A receptor (Y106A), 89 ± 11% in experiment [2] (setting [3]) and 89 ± 6% in experiment [2] (setting [4]). The results for the “% Eff” value in experiment [2] (setting [5]) and in experiment [2] (setting [7]) were 59% and 109%, respectively.

For `Clc1ccc2c(c1)N=C(N1CCNCC1)c1ccccc1N2` [NDMC, 8-chloro-11-(1-piperazinyl)-5H-dibenzo [b,e] [1,4] diazepine], in experiment [1], the 50% inhibitory concentration (IC50) is 158 nM. Also, the results for the Shift (in experiment [1]; at rat M1 Y106A receptor; in experiment [2] (Table 3)) were 1, 2 and 1, respectively. For the same compound, on rat M1 Y106A receptor (R-SAT, Y106A, read-out: increase of maximum response over response at wild-type), the Emax came to 40%. For the same compound, the EC50 on rat M1 Y106A receptor (Y106A) was 100 nM; in experiment [2] (Table 2, mean +/- S.E.M., n=5), 50.1 nM; in experiment [2] (Table 3, M1 WT), 50.1 nM; in experiment [2] (Table 4, M1 wild type), 31.6 nM; in experiment [2] (setting [6]) it was 100 nM. Further, the “Eff (%)” value came to 112 ± 15% on rat M1 Y106A receptor (Y106A), 79 ± 14% in experiment [2] (setting [3]) and 78 ± 4% in experiment [2] (setting [4]). The figures for the “% Eff” value in experiment [2] (setting [5]) and in experiment [2] (setting [7]) were 43% and 93%, respectively.

Values taken from patent US20090209525A1, “ENABLING METHODS TO IDENTIFY ALLOSTERIC MODULATORS OF RECEPTOR ACTIVITY” (priority 2006, published 2009).
